In patent US11560372B2, “Heterocyclic compounds useful as modulators of acetylcholine receptors” (TAKEDA PHARMACEUTICAL COMPANY LIMITED, priority 2017, dated 2023):

Legend:
[1] = target: T1, MDR1 (Homo sapiens, UniProt P08183); experiment: MDR1 membrane permeability test; format: in vitro ADME; details: pH 7.4, efflux ratio (ER), Papp B to A / A to B, human MDR1-expressing LLC-PK1 cells, read-out: MDR1 substrate screening 1 μM (MDRSUB1)/Ratio (NUMBER)
T1 construct: expressed in transfected cells
In short: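 Human MDR1-expressing LLC-PK1 cells were grown for 3 days on 96-well polyethylene terephthalate Transwell supports (0.4 μm pores, 0.143 cm^2) seeded at 3.45×10^4 cells/well. After a 30 min preincubation in M199 medium with 10 mmol/L HEPES and 1% BSA (pH 7.4), drug was added apically or basolaterally. After 1 hr at 37° C, the opposite side was sampled and analyzed by LC-MS/MS. Efflux ratio was calculated from Papp B to A versus A to B.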

[2] = test system: Male ICR mice; experiment: Mouse defecation experiment; format: in vivo; details: mean±standard error
Protocol: Mouse Defecation Experiment
Male ICR mice (6-7 weeks old) were used after an acclimation period for about 1 week. A test drug (1 mg/kg or 3 mg/kg) was suspended in 0.5% methylcellulose solution and orally administered at a volume of 10 mL/kg, and the number of feces 2 hr later was counted. Only 0.5% methylcellulose was administered to a solvent administration group.

[3] = target: T2, human M1 receptor (hCHRM1) (Homo sapiens, UniProt P11229); experiment: Measurement of M1 receptor positive allosteric modulator (M1PAM) activity, calcium fluorescence in CHO-K1 cells; format: cell-based; details: for activity (%) at 10 μM: 10 μM test compound, 100% = acetylcholine final concentration 1 μM, 0% = DMSO; for EC50: inflection point of concentration-dependent curve, in the presence of acetylcholine at EC20 concentration (final 0.8-1.0 nM), read-out: IP value
T2 construct: expressed in transfected cells
T2 sequence (P11229 1-460): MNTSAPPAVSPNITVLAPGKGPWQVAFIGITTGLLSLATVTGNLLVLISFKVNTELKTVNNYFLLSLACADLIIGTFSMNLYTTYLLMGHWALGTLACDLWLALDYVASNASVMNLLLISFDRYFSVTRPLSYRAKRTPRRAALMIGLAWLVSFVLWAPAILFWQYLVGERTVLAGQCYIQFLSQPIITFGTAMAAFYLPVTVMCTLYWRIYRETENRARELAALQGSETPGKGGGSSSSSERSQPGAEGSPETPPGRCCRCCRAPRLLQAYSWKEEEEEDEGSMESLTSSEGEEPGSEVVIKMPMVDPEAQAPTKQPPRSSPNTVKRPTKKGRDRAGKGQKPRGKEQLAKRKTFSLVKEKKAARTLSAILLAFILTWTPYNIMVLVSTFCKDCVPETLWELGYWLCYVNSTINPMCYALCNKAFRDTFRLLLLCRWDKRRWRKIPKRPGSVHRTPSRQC
In short: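 CHO-K1 cells stably expressing human M1 loaded with Fluo-4 AM, then given compound plus acetylcholine at EC20 (final 0.8-1.0 nM). Calcium fluorescence read for 1 min; activity normalized to 1 μM acetylcholine (100%) and DMSO (0%), with IP taken as inflection point of concentration curve.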

T1 sequence (P08183 whole entry): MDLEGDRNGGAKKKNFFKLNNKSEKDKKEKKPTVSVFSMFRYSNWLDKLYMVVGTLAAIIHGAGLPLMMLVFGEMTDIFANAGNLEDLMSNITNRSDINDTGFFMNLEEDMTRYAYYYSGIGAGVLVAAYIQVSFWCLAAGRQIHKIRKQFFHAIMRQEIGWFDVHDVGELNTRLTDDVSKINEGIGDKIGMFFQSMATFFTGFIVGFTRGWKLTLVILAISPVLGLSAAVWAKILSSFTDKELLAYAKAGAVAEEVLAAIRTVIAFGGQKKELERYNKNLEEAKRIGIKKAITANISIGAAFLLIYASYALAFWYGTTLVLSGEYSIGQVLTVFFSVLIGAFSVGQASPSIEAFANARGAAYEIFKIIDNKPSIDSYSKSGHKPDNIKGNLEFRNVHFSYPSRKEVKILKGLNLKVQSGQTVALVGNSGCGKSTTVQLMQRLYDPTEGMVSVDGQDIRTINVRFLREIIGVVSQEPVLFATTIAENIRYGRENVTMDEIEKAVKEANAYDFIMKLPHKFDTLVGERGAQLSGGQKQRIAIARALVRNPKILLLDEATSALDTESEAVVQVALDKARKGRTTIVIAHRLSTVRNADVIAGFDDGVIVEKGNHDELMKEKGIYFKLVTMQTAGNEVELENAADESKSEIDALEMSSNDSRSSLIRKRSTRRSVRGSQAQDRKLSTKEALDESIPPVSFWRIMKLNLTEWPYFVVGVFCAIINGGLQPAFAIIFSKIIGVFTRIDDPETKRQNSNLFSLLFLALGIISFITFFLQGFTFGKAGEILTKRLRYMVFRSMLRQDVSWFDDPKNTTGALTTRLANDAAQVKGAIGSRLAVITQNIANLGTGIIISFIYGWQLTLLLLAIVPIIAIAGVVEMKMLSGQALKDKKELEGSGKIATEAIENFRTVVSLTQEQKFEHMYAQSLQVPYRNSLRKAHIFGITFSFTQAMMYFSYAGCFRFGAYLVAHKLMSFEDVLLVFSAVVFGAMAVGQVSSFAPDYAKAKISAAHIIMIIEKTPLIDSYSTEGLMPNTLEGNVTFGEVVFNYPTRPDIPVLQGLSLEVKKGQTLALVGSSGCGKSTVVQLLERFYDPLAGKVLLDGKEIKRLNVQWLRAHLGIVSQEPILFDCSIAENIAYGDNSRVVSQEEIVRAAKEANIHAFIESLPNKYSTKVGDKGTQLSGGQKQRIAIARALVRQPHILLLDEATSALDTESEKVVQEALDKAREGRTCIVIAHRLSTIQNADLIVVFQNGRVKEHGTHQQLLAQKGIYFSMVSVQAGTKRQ

Compound	efflux ratio at 1 hr, 1 μM [1]	number of feces 2 hr later ([2]; 1 mg/kg orally)	number of feces 2 hr later ([2]; 3 mg/kg orally)	activity (%) at 10 μM [3] [%]	EC50 [3] [nM]
Cc1c(Cc2ccc(-c3cn(C)nn3)nc2)cc2c(=O)n([C@H]3CCOC[C@@H]3O)cnc2c1C [Example 2, 1,5-anhydro-2,3-dideoxy-3-(7,8-dimethyl-6-((6-(1-methyl-1H-1,2,3-triazol-4-yl)pyridin-3-yl)methyl)-4-oxoquinazolin-3(4H)-yl)-L-threo-pentitol]	18	5.0 ± 0.7	11.3 ± 0.6	104	1.5
CNC(=O)c1ccc(Cc2cc3c(=O)n([C@H]4CCOC[C@@H]4O)cnc3c(C)c2C)cc1F [Example 3, 1,5-anhydro-2,3-dideoxy-3-(6-(3-fluoro-4-(methylcarbamoyl)benzyl)-7,8-dimethyl-4-oxoquinazolin-3(4H)-yl)-L-threo-pentitol]	6	14.0 ± 1.0	–	103	1
Cc1nn(C)cc1-c1ccc(Cc2cc3c(=O)n([C@H]4CCOC[C@@H]4O)cnc3c(C)c2C)cn1 [Example 5, 1,5-anhydro-2,3-dideoxy-3-(6-((6-(1,3-dimethyl-1H-pyrazol-4-yl)pyridin-3-yl)methyl)-7,8-dimethyl-4-oxoquinazolin-3(4H)-yl)-L-threo-pentitol]	15	5.6 ± 1.0	8.4 ± 2.6	97	1.5
Cc1c(Cc2ccc(-c3cnn(C)c3)nc2)cc2c(=O)n([C@H]3CCOC[C@@H]3O)cnc2c1C [Example 6, 1,5-anhydro-2,3-dideoxy-3-(7,8-dimethyl-6-((6-(1-methyl-1H-pyrazol-4-yl)pyridin-3-yl)methyl)-4-oxoquinazolin-3(4H)-yl)-L-threo-pentitol]	11	7.2 ± 1.8	8.2 ± 1.0	99	0.96
CNC(=O)c1ccc(Cc2cc3c(=O)n([C@H]4CCOC[C@@H]4O)nnc3c(Cl)c2C)cc1F [Example 19, 1,5-anhydro-3-(8-chloro-6-(3-fluoro-4-(methylcarbamoyl)benzyl)-7-methyl-4-oxo-1,2,3-benzotriazin-3(4H)-yl)-2,3-dideoxy-L-threo-pentitol]	4.6	12.6 ± 1.2	–	103	1.6
COCCNC(=O)c1ccc(Cc2cc3c(=O)n([C@H]4CCOC[C@@H]4O)cnc3c(C)c2C)cc1F [Example 66, 1,5-anhydro-2,3-dideoxy-3-(6-(3-fluoro-4-((2-methoxyethyl)carbamoyl)benzyl)-7,8-dimethyl-4-oxoquinazolin-3(4H)-yl)-L-threo-pentitol]	7	9.3 ± 1.2	–	106	1.8
Cc1c(Cc2ccc(C(=O)NC[C@H]3CCCO3)c(F)c2)cc2c(=O)n([C@H]3CCOC[C@@H]3O)cnc2c1C [Example 81, 1,5-anhydro-2,3-dideoxy-3-(6-(3-fluoro-4-(((2R)-tetrahydrofuran-2-ylmethyl)carbamoyl)benzyl)-7,8-dimethyl-4-oxoquinazolin-3(4H)-yl)-L-threo-pentitol]	8.6	–	–	110	3.7
